The target in assay [1] is T1, Acetylcholinesterase (AChE) (Electrophorus electricus, UniProt O42275).
T1 construct: purchased Invitrogen, Carlsbad, Calif
The class given is biochemical. The method, then:
Current therapy for AD is based on improving the brain synaptic availability of acetylcholine by using acetylcholinesterase inhibitors (AChEls). Therefore, potential drug effect on neuronal dysfunction was studied with an in vitro Acetylcholinesterase (AChE) assay using Amplex Red Acetylcholine/Assay Kit (Invitrogen, Carlsbad, Calif.). The efficacy of ridogrel on memory was obtained running dose-response (10-100 μM). 10 μM Eserine, an anticholinesterase drug, was used as positive control.
Current therapy for AD is based on improving the brain synaptic availability of acetylcholine by using acetylcholinesterase inhibitors (AChEls). Therefore, potential drug effect on neuronal dysfunction was studied with an in vitro Acetylcholinesterase (AChE) assay using Amplex Red Acetylcholine/Assay Kit (Invitrogen, Carlsbad, Calif.). The efficacy of diminazene aceturate on memory was obtained running dose-response (1-500 μM). 10 μM Eserine, an anticholinesterase drug, was used as positive control.

Assay [2] concerns TAU phosphorylation. In words: phospho-tau and Tau ELISA assay in tau-transfected HT4 cells. The class given is cell-based. Conditions: tau-transfected mouse hippocampal-derived HT4 cell line. As for the experimental part:
Docetaxel is a clinically well established anti-mitotic chemotherapy medication used mainly for the treatment of breast, ovarian and non-small cell lung cancer which had shown close proximity with Tau motive. Neurofibrillary tangles, a hallmark of AD, are intracellular abnormally aggregates of hyperphosphorylated protein TAU [19]. In that sense, Tau pathology was evaluated on tau-transfected in a mouse hippocampal-derived HT4 cell line using a phospho-tau and Tau ELISA assay (Sigma-aldrich, St Louis, Mo.). The level of TAU phosphorylation is used as an indicator of the degree of TAU pathology.

Assay [3] has as its system cells stably expressing wild-type presenilin-1 an Aβ precursor protein. In words: Aβ1-40 and Aβ1-42 ELISA on extracellular media of treated cells. The format is cell-based. An excerpt:
The putative neurological effects of this drug have been confirmed experimentally using sensitive Aβ1-40 and Aβ1-42 ELISA kits (Wako, Osaka, Japan) on the extracellular media of treated and untreated cells stably expressing wild-type presenilin-1 an Aβ precursor protein. […] Aggregation and fibril formation of Aβ peptides are central events in the pathogenesis of Alzheimer's disease. Previous studies have established the ratio of Aβ1-40 to Aβ1-42 as an important factor in determining the fibrillogenesis, and toxicity of amyloid plaques.
Background: ELISA stands for enzyme-linked immunosorbent assay.

[4] abbreviates: extracellular media, treated vs untreated cells.

Entries after “also recorded” stand apart in the source; their conditions may differ. Like-named read-outs stand apart in the source and are kept apart here.

T1 sequence (O42275 24-633): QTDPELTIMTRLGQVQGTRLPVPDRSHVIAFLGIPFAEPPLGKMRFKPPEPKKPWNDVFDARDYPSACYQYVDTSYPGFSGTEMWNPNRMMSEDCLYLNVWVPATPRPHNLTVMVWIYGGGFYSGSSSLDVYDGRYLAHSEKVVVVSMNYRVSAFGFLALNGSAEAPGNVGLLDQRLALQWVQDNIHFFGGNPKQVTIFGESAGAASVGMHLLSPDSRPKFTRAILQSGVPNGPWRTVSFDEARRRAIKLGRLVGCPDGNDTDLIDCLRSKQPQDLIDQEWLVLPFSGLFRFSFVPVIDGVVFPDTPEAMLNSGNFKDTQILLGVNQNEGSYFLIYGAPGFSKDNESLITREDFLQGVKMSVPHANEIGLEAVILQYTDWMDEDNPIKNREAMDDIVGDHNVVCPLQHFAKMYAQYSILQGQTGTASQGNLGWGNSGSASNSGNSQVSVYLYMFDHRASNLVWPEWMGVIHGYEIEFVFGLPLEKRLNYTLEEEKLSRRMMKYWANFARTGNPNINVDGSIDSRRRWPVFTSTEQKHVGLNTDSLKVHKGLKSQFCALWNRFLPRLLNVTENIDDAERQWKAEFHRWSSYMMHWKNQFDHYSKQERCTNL

Consider `N=C(N)c1ccc(/N=N/Nc2ccc(C(=N)N)cc2)cc1` [Diminazene Aceturate, Diminazene aceturate], for which the “inhibition of AChE” value in assay [1] (dose-response 1-500 μM, inhibition with dose 500 to 10 μM) is “dose-dependent inhibition”.
In the case of `CC(=O)O[C@@]12CO[C@@H]1C[C@H](O)[C@@]1(C)C(=O)[C@H](O)C3=C(C)[C@@H](OC(=O)[C@H](O)[C@@H](NC(=O)OC(C)(C)C)c4ccccc4)C[C@@](O)([C@@H](OC(=O)c4ccccc4)[C@H]21)C3(C)C` [Docetaxel], the “TAU phosphorylation (pTAU/TAU ratio)” value is “significantly reduces” in assay [2] and “reduces TAU phosphorylation” in assay [2] (listed as docetaxel).
Turning to `Cc1c(OCC(F)(F)F)ccnc1C[S+]([O-])c1nc2ccccc2[nH]1` (stereo not shown) [Lansoprazole], in assay [3] (setting [4]), the Aβ1-40 peptide production result is recorded as “significantly increases” and the Aβ1-42 peptide production entry is listed as “significantly increase”. For the same compound, in assay [3] (treated cells), the Aβ1-40/Aβ1-42 ratio result is given as “significant reduction; also recorded: reduces”.
`O=C(O)CCCCO/N=C(/c1cccnc1)c1cccc(C(F)(F)F)c1` [Ridogrel]: the “inhibition of AChE” value in assay [1] (dose-response 10-100 μM, inhibition with dose 100 to 25 μM) is given as “dose-dependent inhibition”.

(Values after patent US20130116215A1, “COMBINATION THERAPIES FOR TREATING NEUROLOGICAL DISORDERS” (priority 2011, published 2013).)
